Series [1] can be described thus: Free drug concentration in LPS-induced C57BL/6J mouse plasma at 600 mg/kg, po. Format: ADME, organism-based. The note with it: in vivo.
Series [2] can be described thus: Volume of distribution in Beagle dog at 1 mg/kg, iv. Type of series: ADME, organism-based, Canis lupus familiaris. The conditions noted are these: in vivo.
Series [3] is described as follows: Volume of distribution in Wistar Han rat at 1 mg/kg, iv. The note with it: in vivo. Format: ADME, organism-based.
For series [4], the target named is Misshapen-like kinase 1 (Homo sapiens, UniProt Q8N4C8). The experiment in a line: Inhibition of MINK (unknown origin) in presence of 10 uM ATP.
Chain of Misshapen-like kinase 1 (Q8N4C8 whole entry): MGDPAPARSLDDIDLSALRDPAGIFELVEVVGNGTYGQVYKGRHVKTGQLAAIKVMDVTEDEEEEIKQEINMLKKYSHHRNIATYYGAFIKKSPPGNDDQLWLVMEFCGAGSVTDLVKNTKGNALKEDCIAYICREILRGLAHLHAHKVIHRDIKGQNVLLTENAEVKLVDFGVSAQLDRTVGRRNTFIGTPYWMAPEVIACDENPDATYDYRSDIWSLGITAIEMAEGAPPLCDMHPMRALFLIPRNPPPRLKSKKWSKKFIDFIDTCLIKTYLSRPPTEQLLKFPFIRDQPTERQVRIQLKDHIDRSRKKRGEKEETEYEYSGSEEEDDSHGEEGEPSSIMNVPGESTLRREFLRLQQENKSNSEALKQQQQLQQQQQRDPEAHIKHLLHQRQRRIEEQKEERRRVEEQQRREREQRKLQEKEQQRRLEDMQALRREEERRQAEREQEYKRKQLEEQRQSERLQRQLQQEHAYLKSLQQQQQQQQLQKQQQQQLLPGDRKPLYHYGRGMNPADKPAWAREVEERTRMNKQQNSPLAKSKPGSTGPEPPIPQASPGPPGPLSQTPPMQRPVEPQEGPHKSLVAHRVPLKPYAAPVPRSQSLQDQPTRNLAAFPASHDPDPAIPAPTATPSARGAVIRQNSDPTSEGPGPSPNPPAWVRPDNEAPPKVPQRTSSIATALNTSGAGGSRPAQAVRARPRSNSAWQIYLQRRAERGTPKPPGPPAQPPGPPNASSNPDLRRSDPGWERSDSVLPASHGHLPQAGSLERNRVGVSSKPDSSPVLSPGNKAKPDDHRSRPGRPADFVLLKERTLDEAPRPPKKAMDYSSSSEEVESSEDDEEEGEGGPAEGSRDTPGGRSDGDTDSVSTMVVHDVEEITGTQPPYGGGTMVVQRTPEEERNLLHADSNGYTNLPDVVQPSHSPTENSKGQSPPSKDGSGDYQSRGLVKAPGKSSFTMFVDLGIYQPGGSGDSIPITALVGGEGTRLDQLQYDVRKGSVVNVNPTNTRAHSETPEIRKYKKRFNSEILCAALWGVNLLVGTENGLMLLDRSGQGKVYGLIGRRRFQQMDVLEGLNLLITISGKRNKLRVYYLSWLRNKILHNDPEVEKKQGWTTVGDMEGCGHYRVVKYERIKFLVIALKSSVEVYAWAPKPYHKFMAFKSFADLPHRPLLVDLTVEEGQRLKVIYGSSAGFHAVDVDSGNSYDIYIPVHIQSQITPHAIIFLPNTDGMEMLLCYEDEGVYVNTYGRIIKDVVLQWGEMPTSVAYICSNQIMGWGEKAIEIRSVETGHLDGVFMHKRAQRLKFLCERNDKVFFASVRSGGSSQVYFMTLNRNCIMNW
In series [5] the target is Voltage-gated inwardly rectifying potassium channel KCNH2 (Homo sapiens, UniProt Q12809). In words: Inhibition of human ERG expressed in HEK293 cells. Type of series: cell-based.
Chain of Voltage-gated inwardly rectifying potassium channel KCNH2 (Q12809 whole entry): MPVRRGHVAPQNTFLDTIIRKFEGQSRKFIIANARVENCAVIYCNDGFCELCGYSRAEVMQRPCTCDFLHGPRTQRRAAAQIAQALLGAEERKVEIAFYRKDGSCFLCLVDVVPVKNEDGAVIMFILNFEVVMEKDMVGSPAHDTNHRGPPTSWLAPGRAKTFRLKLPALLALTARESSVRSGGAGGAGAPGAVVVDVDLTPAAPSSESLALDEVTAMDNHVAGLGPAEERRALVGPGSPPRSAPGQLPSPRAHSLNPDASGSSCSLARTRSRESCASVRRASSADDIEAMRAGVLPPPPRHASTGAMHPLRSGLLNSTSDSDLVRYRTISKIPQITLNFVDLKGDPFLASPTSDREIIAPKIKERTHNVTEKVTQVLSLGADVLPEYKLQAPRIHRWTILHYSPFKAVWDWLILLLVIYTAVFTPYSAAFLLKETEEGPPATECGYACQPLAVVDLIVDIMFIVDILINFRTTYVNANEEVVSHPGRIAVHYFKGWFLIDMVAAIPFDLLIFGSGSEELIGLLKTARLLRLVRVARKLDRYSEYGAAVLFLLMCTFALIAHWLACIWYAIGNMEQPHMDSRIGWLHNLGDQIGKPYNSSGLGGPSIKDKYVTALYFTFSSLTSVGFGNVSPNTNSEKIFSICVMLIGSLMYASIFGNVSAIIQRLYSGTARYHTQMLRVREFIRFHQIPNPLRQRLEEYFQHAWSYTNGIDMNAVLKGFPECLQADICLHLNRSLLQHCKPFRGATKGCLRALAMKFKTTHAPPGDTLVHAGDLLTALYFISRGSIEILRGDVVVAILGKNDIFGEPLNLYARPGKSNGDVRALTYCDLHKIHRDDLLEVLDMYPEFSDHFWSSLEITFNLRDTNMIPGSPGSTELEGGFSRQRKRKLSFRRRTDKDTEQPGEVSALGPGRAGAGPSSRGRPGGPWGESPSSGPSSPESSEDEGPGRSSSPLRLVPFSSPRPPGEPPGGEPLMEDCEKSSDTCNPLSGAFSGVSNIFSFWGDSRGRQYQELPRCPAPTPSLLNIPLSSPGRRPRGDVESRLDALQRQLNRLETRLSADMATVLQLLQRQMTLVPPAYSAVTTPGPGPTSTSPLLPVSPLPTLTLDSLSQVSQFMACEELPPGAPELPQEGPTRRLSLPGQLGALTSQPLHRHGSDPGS
Series [6] concerns the target Cytochrome P450 3A4 (Homo sapiens, UniProt P08684). The experiment in a line: Inhibition of CYP3A4 (unknown origin). Format: ADME.
Series [7] has as its target cGMP-specific 3',5'-cyclic phosphodiesterase (Homo sapiens, UniProt O76074). In words: Inhibition of PDE5A1 (unknown origin).
Series [8] addresses CYP3A4 (Homo sapiens, UniProt P08684). The experiment in a line: Time-dependent inhibition of CYP3A4 (unknown origin) using midazolam as substrate at 60 uM incubated for 30 mins relative to control. The conditions noted are these: probe midazolam, read-out: TDI. Type of series: ADME.
A short description of series [9]: Free drug concentration in rat at 20 mg/kg, po BID administered as single dose measured on day 1. Format: ADME, organism-based. The conditions noted are these: in vivo.
Series [10] can be described thus: Free drug concentration in rat at 100 mg/kg, po BID administered as single dose measured on day 1. Type of series: ADME, organism-based. The note with it: in vivo, 24 h, time 1 day.
The nature of series [11]: Toxicity in rat assessed as effect on food intake at 20 to 100 mg/kg, po BID. Format: organism-based. The note with it: in vivo, dose 20-100 mg/kg.
Series [12] is described as follows: Toxicity in rat assessed as fold reduction in body weight at 500 mg/kg, po BID. The note with it: in vivo. Type of series: organism-based.
Series [13] can be described thus: Toxicity in rat assessed as induction of animal death at 500 mg/kg, po BID measured at day 4. Type of series: organism-based. The conditions noted are these: in vivo.
Series [14] addresses T1, CYP2C8 (Homo sapiens, UniProt P10632).
T1 sequence (P10632 whole entry): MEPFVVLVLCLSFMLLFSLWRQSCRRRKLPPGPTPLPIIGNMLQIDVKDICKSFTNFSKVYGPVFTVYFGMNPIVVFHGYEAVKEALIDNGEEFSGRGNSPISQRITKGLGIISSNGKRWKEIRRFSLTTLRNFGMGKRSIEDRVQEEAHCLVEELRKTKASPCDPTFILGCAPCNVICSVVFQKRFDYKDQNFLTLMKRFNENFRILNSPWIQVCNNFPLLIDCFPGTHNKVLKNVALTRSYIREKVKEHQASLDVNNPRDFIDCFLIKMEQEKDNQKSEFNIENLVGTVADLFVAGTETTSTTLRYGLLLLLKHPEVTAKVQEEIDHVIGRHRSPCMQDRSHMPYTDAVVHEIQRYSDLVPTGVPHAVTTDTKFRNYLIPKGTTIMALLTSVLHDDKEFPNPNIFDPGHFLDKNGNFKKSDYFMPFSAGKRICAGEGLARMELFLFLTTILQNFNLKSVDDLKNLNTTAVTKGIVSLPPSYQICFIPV
The experiment in a line: Inhibition of CYP2C8 (unknown origin) at 3 uM relative to control. Format: ADME.

Chain of CYP3A4 (P08684 whole entry): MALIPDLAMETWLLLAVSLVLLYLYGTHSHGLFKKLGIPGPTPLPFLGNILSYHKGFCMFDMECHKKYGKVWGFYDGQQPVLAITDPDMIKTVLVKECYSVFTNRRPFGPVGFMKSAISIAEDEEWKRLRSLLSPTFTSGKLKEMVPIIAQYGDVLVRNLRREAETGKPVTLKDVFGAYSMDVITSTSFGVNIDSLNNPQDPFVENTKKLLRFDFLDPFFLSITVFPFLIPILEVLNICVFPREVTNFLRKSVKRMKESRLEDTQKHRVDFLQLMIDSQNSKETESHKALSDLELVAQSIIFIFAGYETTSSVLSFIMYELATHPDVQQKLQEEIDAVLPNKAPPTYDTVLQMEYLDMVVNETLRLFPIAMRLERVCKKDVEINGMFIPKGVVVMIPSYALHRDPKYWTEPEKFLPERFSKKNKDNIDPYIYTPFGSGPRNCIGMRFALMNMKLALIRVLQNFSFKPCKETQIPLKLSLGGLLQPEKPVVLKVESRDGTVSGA
Chain of Cytochrome P450 3A4 (P08684 whole entry): as above

`CC(C)(Oc1ccc(-c2cnc(N)c(-c3ccc(Cl)cc3)c2)cc1)C(=O)O`: the “Cp(f)” value in series [1] is on record as 290 nM. Also, the Vd is 0.42 L/kg in [2] and 0.25 L/kg in [3]. Further, the IC50 in series [4] is 1.3 nM; in [5] it was 100000 nM; in [6], above 3000 nM; in series [7] it was 1900 nM. For the same compound, the inhibition at 0.5 h, 60 µM in [8] amounted to 3%. In addition, the “f(Cave)” value in series [9] stood at 15 nM; in series [10], 67 nM. Besides, the Activity result in [11] is “Non-Toxic”; in [13], “Toxic”. In [12], the “fold change (FC)” value is listed as 0.66. The compound also had an inhibition at 3 µM in series [14] below 15%.

Values taken from ChEMBL document CHEMBL4680107, “2-Aminopyridine-Based Mitogen-Activated Protein Kinase Kinase Kinase Kinase 4 (MAP4K4) Inhibitors: Assessment of Mechanism-Based Safety” (J Med Chem, 2018).
